According to paper PMC8518114, “Safety, tolerability and pharmacokinetics of emodepside, a potential novel treatment for onchocerciasis (river blindness), in healthy male subjects” (British Journal of Clinical Pharmacology, 2021):
Where two headings read alike, the source gives them in different places.

Experiment: Plasma pharmacokinetics of emodepside, single ascending dose (SAD) and food effect study
Type: in vivo, human
Conditions: for AUC 0–24 /D / C max /D: dose-normalised; for t ½ 0–24 (dominant half-life): terminal slope of log concentration–time (0–24 h) curve; for half-life: ln2/λz, read-out: Terminal t ½ (converted); for Tmax: median (range)
Description: Emodepside and placebo were supplied as a LSF and a standard immediate‐release (IR) tablet. The LSF was a 0.1% (w/v) solution containing 1 mg emodepside/mL. Conventional IR tablets containing emodepside in crystalline form were supplied in 2 dosage strengths, 5 and 20 mg, for the single ascending dose (SAD) study.
To preclude any dietary effects on the PK of emodepside, subjects in the fasting cohorts fasted for 9 hours before receiving the IP. Subjects in the fed cohort fasted for 10 hours prior to dosing and received a standard high‐calorie, high‐fat breakfast 30 minutes prior to dosing.
Blood samples (5 mL) were collected by venepuncture or via a cannula into EDTA tubes and immediately placed on ice. Samples were centrifuged at 1500 g for 10 minutes at 4°C. The plasma was aliquoted into 2 polypropylene tubes, which were stored at −20°C. Blood samples for PK analysis were taken at the following time points: • SAD: predose and 0.5, 1, 1.5, 2, 2.5, 3, 4, 5, 6, 8, 12, 24, 36, 48, 72, 96, 120, 144 and 168 hours, and 21 days postdose (cohort 1–9) or predose and 0.5, 1, 3, 6, 8, 12, 24, 36, 48, 72, 96, 120, 144 and 168 hours, and 10, 14, 18 and 21 days postdose (cohort 10). • Multiple ascending dose (MAD), as below: • on Day 1: predose and at 0.25, 0.5, 1, 1.5, 2, 2.5, 3, 4, 6, 8, 12 and 15 hours postdose • on Days 2–9: before the morning dose • on Day 10: before and at 0.25, 0.5, 1, 1.5, 2, 2.5, 3, 4, 6, 8, 12 and 15 hours • on Days 11, 12, 13, 14, 15, 18, 21, 24 and 30.
Emodepside plasma concentrations were determined by a validated high performance liquid chromatography–tandem mass spectrometry assay, using a Alltima C18 5 μm 150 mm x 2.1 mm column and an Applied Biosystems API4000 Turbo Ion Spray detector using positive ion mode. Analyst version 1.3.2 or 1.6.3 software, obtained from AB Sciex UK Ltd, Warrington, UK was used for chromatogram data analysis and quantitative calculations. Deuterated emodepside‐D16 was used as the internal standard. The lower limit of quantitation for emodepside in plasma was 1 ng/mL. Values below this limit were not used to calculate the PK parameters, except values that were below the limit of quantification before Cmax, which were set to zero.
The highest observed plasma concentration (Cmax) was determined directly from concentration–time data, as was the time to reach maximum plasma concentration (tmax). The area under the plasma concentration–time curve from time zero (predose) to the time of last quantifiable concentration (AUC0‐last) was calculated using the linear‐log trapezoidal rule. Elimination half‐life (t1/2) was calculated by the equation ln2/λz.
Statistical analyses were performed using SAS version 9.3 (Cary, NC, USA). Demographic data and baseline characteristics were listed and summarised. […] PK parameters were derived from plasma concentration vs. time data using a noncompartmental analysis in Phoenix WinNonlin version 7 (Certara Inc., Princeton, NJ, USA). Plasma concentration vs. time data and PK parameters were listed, and summarised by treatment, using descriptive statistics. Mean concentrations were calculated only if at least ⅔ of the individual concentrations were above the lower limit of quantification. […] Planned sampling times were used to summarise plasma‐concentration data; actual sampling times were used in the derivation of PK parameters.

[1] = SAD, single oral 1 mg LSF fasting, mean
[2] = SAD, single oral 2.5 mg LSF fasting, mean
[3] = SAD, single oral 5 mg IRT fasting, mean
[4] = SAD, single oral 5 mg LSF fasting, mean
[5] = SAD, single oral 10 mg LSF Fed, mean
[6] = SAD, single oral 10 mg LSF fasting, mean
[7] = SAD, single oral 20 mg IRT fasting, mean
[8] = SAD, single oral 20 mg LSF fasting, mean
[9] = SAD, single oral 40 mg LSF fasting, mean
[10] = human, in vivo, po, 1 mg, SAD, single oral 1 mg LSF fasting, plasma, HPLC-MS/MS, mean
[11] = human, in vivo, po, 2.5 mg, SAD, single oral 2.5 mg LSF fasting, plasma, HPLC-MS/MS, mean
[12] = human, in vivo, po, 5 mg, SAD, single oral 5 mg IRT fasting, plasma, HPLC-MS/MS, mean
[13] = human, in vivo, po, 5 mg, SAD, single oral 5 mg LSF fasting, plasma, HPLC-MS/MS, mean
[14] = human, in vivo, po, 10 mg, SAD, single oral 10 mg LSF Fed, plasma, HPLC-MS/MS, mean
[15] = human, in vivo, po, 10 mg, SAD, single oral 10 mg LSF fasting, plasma, HPLC-MS/MS, mean
[16] = human, in vivo, po, 20 mg, SAD, single oral 20 mg IRT fasting, plasma, HPLC-MS/MS, mean
[17] = human, in vivo, po, 20 mg, SAD, single oral 20 mg LSF fasting, plasma, HPLC-MS/MS, mean
[18] = human, in vivo, po, 40 mg, SAD, single oral 40 mg LSF fasting, plasma, HPLC-MS/MS, mean

CC(C)C[C@H]1C(=O)O[C@H](Cc2ccc(N3CCOCC3)cc2)C(=O)N(C)[C@@H](CC(C)C)C(=O)O[C@H](C)C(=O)N(C)[C@@H](CC(C)C)C(=O)O[C@H](Cc2ccc(N3CCOCC3)cc2)C(=O)N(C)[C@@H](CC(C)C)C(=O)O[C@H](C)C(=O)N1C [emodepside]
Plasma emodepside concentrations lower in the first 24 hours postdose, based on geometric mean Cmax (SAD, all dose levels and both formulations): approximately 90% | AUC0-last in fed relative to fasting conditions (SAD, single 10-mg dose of the LSF): not statistically different | AUC 0–24 /D [1]: 100 [h.ng/mL]/mg | C max /D [1]: 18.6 [ng/mL]/mg | t ½ 0–24 (dominant half-life) [1]: 8.45 h | AUC 0–24 /D [2]: 100 [h.ng/mL]/mg | C max /D [2]: 15.0 [ng/mL]/mg | t ½ 0–24 (dominant half-life) [2]: 10.6 h | AUC 0–24 /D [3]: 36.5 [h.ng/mL]/mg | C max /D [3]: 5.15 [ng/mL]/mg | AUC 0–24 (SAD, single oral 5 mg IRT fasting, plasma, HPLC-MS/MS, mean): 183 ng·h/mL | t ½ 0–24 (dominant half-life) [3]: 10.8 h | AUC 0–24 /D [4]: 104 [h.ng/mL]/mg | C max /D [4]: 18.4 [ng/mL]/mg | AUC 0–24 (SAD, single oral 5 mg LSF fasting, plasma, HPLC-MS/MS, mean): 522 ng·h/mL | t ½ 0–24 (dominant half-life) [4]: 11.6 h | AUC 0–24 /D [5]: 67.3 [h.ng/mL]/mg | C max /D [5]: 7.19 [ng/mL]/mg | t ½ 0–24 (dominant half-life) [5]: 11.1 h | AUC 0–24 /D [6]: 99.6 [h.ng/mL]/mg | C max /D [6]: 17.2 [ng/mL]/mg | t ½ 0–24 (dominant half-life) [6]: 10.9 h | AUC 0–24 /D [7]: 11.2 [h.ng/mL]/mg | C max /D [7]: 1.51 [ng/mL]/mg | AUC 0–24 (SAD, single oral 20 mg IRT fasting, plasma, HPLC-MS/MS, mean): 223 ng·h/mL | t ½ 0–24 (dominant half-life) [7]: 11.3 h | AUC 0–24 /D [8]: 95.3 [h.ng/mL]/mg | C max /D [8]: 15.3 [ng/mL]/mg | AUC 0–24 (SAD, single oral 20 mg LSF fasting, plasma, HPLC-MS/MS, mean): 1910 ng·h/mL | t ½ 0–24 (dominant half-life) [8]: 10.5 h | AUC 0–24 /D [9]: 103 [h.ng/mL]/mg | C max /D [9]: 14.9 [ng/mL]/mg | AUC last (SAD, single oral 40 mg LSF fasting, plasma, HPLC-MS/MS, mean): 16 400 h.ng/mL | Half-life during the first 24 hours after dosing (distribution phase) (healthy subjects, oral, across the 2 studies): around 11 hours | AUC 0–24 h [10]: 100 ng·h/mL | AUC(0-t) [10]: 182 ng·h/mL | Cmax [10]: 18.6 ng/mL | half-life (human, in vivo, po, 1 mg, SAD, single oral 1 mg LSF fasting, plasma, mean): 42.7 h | Tmax (human, in vivo, po, 1 mg, SAD, single oral 1 mg LSF fasting, plasma): 1 h | AUC 0–24 h [11]: 250 ng·h/mL | AUC(0-t) [11]: 845 ng·h/mL | Cmax [11]: 37.6 ng/mL | half-life (human, in vivo, po, 2.5 mg, SAD, single oral 2.5 mg LSF fasting, plasma, mean): 449 h | Tmax (human, in vivo, po, 2.5 mg, SAD, single oral 2.5 mg LSF fasting, plasma): 1 h | F rel (human, in vivo, po, 5 mg): 35% | AUC(0-t) [12]: 501 ng·h/mL | Cmax [12]: 25.7 ng/mL | half-life (human, in vivo, po, 5 mg, SAD, single oral 5 mg IRT fasting, plasma, mean): 267 h | Tmax (human, in vivo, po, 5 mg, SAD, single oral 5 mg IRT fasting, plasma): 2 h | AUC(0-t) [13]: 1700 ng·h/mL | Cmax [13]: 92.1 ng/mL | half-life (human, in vivo, po, 5 mg, SAD, single oral 5 mg LSF fasting, plasma, mean): 415 h | Tmax (human, in vivo, po, 5 mg, SAD, single oral 5 mg LSF fasting, plasma): 1 h | AUC 0–24 h [14]: 673 ng·h/mL | AUC(0-t) [14]: 3390 ng·h/mL | Cmax [14]: 71.9 ng/mL | half-life (human, in vivo, po, 10 mg, SAD, single oral 10 mg LSF Fed, plasma, mean): 531 h | Tmax (human, in vivo, po, 10 mg, SAD, single oral 10 mg LSF Fed, plasma): 2.5 h | AUC 0–24 h [15]: 996 ng·h/mL | AUC(0-t) [15]: 3070 ng·h/mL | Cmax [15]: 172 ng/mL | half-life (human, in vivo, po, 10 mg, SAD, single oral 10 mg LSF fasting, plasma, mean): 365 h | Tmax (human, in vivo, po, 10 mg, SAD, single oral 10 mg LSF fasting, plasma): 1 h | AUC(0-t) [16]: 667 ng·h/mL | Cmax [16]: 30.2 ng/mL | half-life (human, in vivo, po, 20 mg, SAD, single oral 20 mg IRT fasting, plasma, mean): 348 h | Tmax (human, in vivo, po, 20 mg, SAD, single oral 20 mg IRT fasting, plasma): 2 h | AUC(0-t) [17]: 7480 ng·h/mL | Cmax [17]: 306 ng/mL | half-life (human, in vivo, po, 20 mg, SAD, single oral 20 mg LSF fasting, plasma, mean): 590 h | Tmax (human, in vivo, po, 20 mg, SAD, single oral 20 mg LSF fasting, plasma): 1.5 h | AUC 0–24 h [18]: 4110 ng·h/mL | Cmax [18]: 595 ng/mL | half-life (human, in vivo, po, 40 mg, SAD, single oral 40 mg LSF fasting, plasma, mean): 392 h | Tmax (human, in vivo, po, 40 mg, SAD, single oral 40 mg LSF fasting, plasma): 1.05 h | Frel, relative bioavailability IR tablet vs. LSF (in vivo): 11.71%
